Assay results reported in patent US11524966B1 (Valo Early Discovery, Inc., priority 2017, dated 2022).

Target: T1, USP25 (USP25-His6, Boston Biochem E-546) (Homo sapiens, UniProt Q9UHP3)
T1 construct: His6; purchased Boston Biochem E-546
T1 sequence (Q9UHP3 1-1055): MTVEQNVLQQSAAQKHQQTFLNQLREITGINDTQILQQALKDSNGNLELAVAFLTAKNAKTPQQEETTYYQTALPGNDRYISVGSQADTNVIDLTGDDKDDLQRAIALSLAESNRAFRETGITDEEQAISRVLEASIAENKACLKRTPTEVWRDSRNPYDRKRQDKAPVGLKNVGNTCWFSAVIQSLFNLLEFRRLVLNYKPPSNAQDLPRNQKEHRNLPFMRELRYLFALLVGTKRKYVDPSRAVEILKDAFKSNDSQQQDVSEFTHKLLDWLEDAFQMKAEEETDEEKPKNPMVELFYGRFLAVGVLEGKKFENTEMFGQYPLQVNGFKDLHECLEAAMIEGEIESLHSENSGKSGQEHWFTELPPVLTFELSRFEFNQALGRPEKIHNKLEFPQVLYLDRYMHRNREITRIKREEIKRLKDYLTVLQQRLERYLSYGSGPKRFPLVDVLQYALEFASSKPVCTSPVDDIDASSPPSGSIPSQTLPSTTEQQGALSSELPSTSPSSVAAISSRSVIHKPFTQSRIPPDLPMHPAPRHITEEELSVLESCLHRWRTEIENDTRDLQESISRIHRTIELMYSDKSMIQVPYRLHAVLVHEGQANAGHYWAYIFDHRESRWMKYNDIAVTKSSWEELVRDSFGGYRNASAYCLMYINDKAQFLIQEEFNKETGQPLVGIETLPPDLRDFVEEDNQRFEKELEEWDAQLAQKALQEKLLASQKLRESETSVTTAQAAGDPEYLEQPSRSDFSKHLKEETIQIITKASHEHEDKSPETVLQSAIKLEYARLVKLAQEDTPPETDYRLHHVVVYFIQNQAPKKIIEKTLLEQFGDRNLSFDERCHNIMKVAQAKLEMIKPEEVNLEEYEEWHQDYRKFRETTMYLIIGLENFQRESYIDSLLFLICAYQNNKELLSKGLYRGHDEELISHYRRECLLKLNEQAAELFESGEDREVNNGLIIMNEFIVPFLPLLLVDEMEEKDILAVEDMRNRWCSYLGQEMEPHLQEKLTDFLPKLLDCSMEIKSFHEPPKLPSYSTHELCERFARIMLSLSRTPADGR
Assay: Ubiquitin-Rhodamine 110 Assay for USP25 Activity, Example A-2
Type: biochemical
Conditions: Ubiquitin-Rhodamine 110 assay, Example A-2; read-out: USP25 A-2 IC50 range
How it was run: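 USP25-His6 (75 pM) was preincubated with compound (10-point, 3-fold series, 25 μM to 1.3 nM) for 30 min in 20 mM Tris-HCl pH 8.0, 3 mM BME, 0.03% BGG, 0.01% Triton X-100. Ub-Rh110 (25 nM, <<Km) was then added for 45 min at room temperature, citric acid-stopped, and fluorescence read at 485/535 nm.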

First: CO[C@H]1CN(c2cc3c(cc2F)C[C@@H](NC(=O)c2sc4nc(C)ccc4c2N)CO3)C[C@@H]1N [Example 94, 3-amino-N-[(3R)-7-[(3S,4S)-3-amino-4-methoxypyrrolidin-1-yl]-6-fluoro-3,4-dihydro-2H-1-benzopyran-3-yl]-6-methylthieno[2,3-b]pyridine-2-carboxamide]
Second: Cc1ccc2c(N)c(C(=O)N[C@H]3COc4cc(N5CC6CCC(C5)N6)c(F)cc4C3)sc2n1 [Example 104, 3-amino-N-[(3R)-7-{3,8-diazabicyclo[3.2.1]octan-3-yl]-6-fluoro-3,4-dihydro-2H-1-benzopyran-3-yl]-6-methylthieno[2,3-b]pyridine-2-carboxamide]
The IC50 of the first is higher: 0.2 to 2 µM for the first, 0.001 to 0.05 µM for the second.

First: Cc1ccc2c(N)c(C(=O)N[C@H]3COc4c(C#N)c(N5CC6CCC(C5)N6)cc(F)c4C3)sc2n1 [Example 95, 3-amino-N-[(3R)-8-cyano-7-{3,8-diazabicyclo[3.2.1]octan-3-yl}-5-fluoro-3,4-dihydro-2H-1-benzopyran-3-yl]-6-methylthieno[2,3-b]pyridine-2-carboxamide]
Second: Cc1ccc2c(N)c(C(=O)N[C@H]3COc4c(C#N)c(N5CC6CNCC(C5)O6)cc(F)c4C3)sc2n1 [Example 96, 3-amino-N-[(3R)-8-cyano-5-fluoro-7-{9-oxa-3,7-diazabicyclo[3.3.1]nonan-3-yl}-3,4-dihydro-2H-1-benzopyran-3-yl]-6-methylthieno[2,3-b]pyridine-2-carboxamide]
The IC50 of the first is higher: 0.2 to 2 µM for the first, 0.05 to 0.2 µM for the second.

`Cc1cnc2c(N)c(C(=O)N[C@H]3COc4cc(N5CC6CCC(C5)N6)c(F)c(F)c4C3)sc2n1` [Example 97, 7-amino-N-[(3R)-7-{3,8-diazabicyclo[3.2.1]octan-3-yl]-5,6-difluoro-3,4-dihydro-2H-1-benzopyran-3-yl]-3-methylthieno[2,3-b]pyrazine-6-carboxamide] and `Cc1cnc2c(N)c(C(=O)N[C@H]3COc4c(F)c(N5CC6CCC(C5)N6)cc(F)c4C3)sc2n1` [Example 107, 7-amino-N-[(3R)-7-{3,8-diazabicyclo[3.2.1]octan-3-yl}-5,8-difluoro-3,4-dihydro-2H-1-benzopyran-3-yl]-3-methylthieno[2,3-b]pyrazine-6-carboxamide] fall in the same range of IC50: 0.001 to 0.05 µM for the first, 0.001 to 0.05 µM for the second.

`Cc1nc2sc(C(=O)N[C@H]3COc4c(F)c(N5CC6CCC(C5)N6)cc(F)c4C3)c(N)c2s1` [Example 98, 6-amino-N-[(3R)-7-{3,8-diazabicyclo[3.2.1]octan-3-yl}-5,8-difluoro-3,4-dihydro-2H-1-benzopyran-3-yl]-2-methylthieno[2,3-d][1, 3]thiazole-5-carboxamide] and `Cc1nc2sc(C(=O)N[C@H]3COc4cc(N5CC6CCC(C5)N6)c(F)c(F)c4C3)c(N)c2s1` [Example 108, 6-amino-N-[(3R)-7-{3,8-diazabicyclo[3.2.1]octan-3-yl}-5,6-difluoro-3,4-dihydro-2H-1-benzopyran-3-yl]-2-methylthieno[2,3-d][1,3]thiazole-5-carboxamide] fall in the same range of IC50: 0.05 to 0.2 µM for the first, 0.05 to 0.2 µM for the second.

Compared with `Cc1ccc2c(N)c(C(=O)N[C@H]3CCc4c(ccc(N5CC6CNCC(C5)O6)c4F)C3)sc2n1` [Example 99, 3-amino-N-[(2S)-5-fluoro-6-{9-oxa-3,7-diazabicyclo[3.3.1]nonan-3-yl}-1,2,3,4-tetrahydronaphthalen-2-yl]-6-methylthieno[2,3-b]pyridine-2-carboxamide], `Cc1ccc2c(N)c(C(=O)N[C@@H]3CCc4c(ccc(N5CC6CNCC(C5)O6)c4F)C3)sc2n1` [Example 100, 3-amino-N-[(2R)-5-fluoro-6-{9-oxa-3,7-diazabicyclo[3.3.1]nonan-3-yl}-1,2,3,4-tetrahydronaphthalen-2-yl]-6-methylthieno[2,3-b]pyridine-2-carboxamide] is higher in IC50: 0.001 to 0.05 µM for the first, > 2 µM for the second. The first is the more potent here.

`Cc1ccc2c(N)c(C(=O)N[C@H]3CCc4cc(N5CC6CNCC(C5)O6)c(F)cc4C3)sc2n1` [Example 101, 3-amino-N-[(2S)-7-fluoro-6-{9-oxa-3,7-diazabicyclo[3.3.1]nonan-3-yl}-1,2,3,4-tetrahydronaphthalen-2-yl]-6-methylthieno[2,3-b]pyridine-2-carboxamide] and `Cc1ccc2c(N)c(C(=O)N[C@H]3CCc4cc(N5CC6CNCC(C5)O6)c(C#N)cc4C3)sc2n1` [Example 109, 3-amino-N-[(2S)-7-cyano-6-{9-oxa-3,7-diazabicyclo[3.3.1]nonan-3-yl}-1,2,3,4-tetrahydronaphthalen-2-yl]-6-methylthieno[2,3-b]pyridine-2-carboxamide] fall in the same range of IC50: 0.2 to 2 µM for the first, 0.2 to 2 µM for the second.

Compared with `Cc1ccc2c(N)c(C(=O)N[C@H]3CCc4c(ccc(N5CC6CNCC(C5)O6)c4C#N)C3)sc2n1` [Example 102, 3-amino-N-[(2S)-5-cyano-6-{9-oxa-3,7-diazabicyclo[3.3.1]nonan-3-yl}-1,2,3,4-tetrahydronaphthalen-2-yl]-6-methylthieno[2,3-b]pyridine-2-carboxamide], `Cc1ccc2c(N)c(C(=O)N[C@H]3COc4c(ccc(N5CC6CNCC(C5)O6)c4F)C3)sc2n1` [Example 105, 3-amino-N-[(3R)-8-fluoro-7-{9-oxa-3,7-diazabicyclo[3.3.1]nonan-3-yl}-3,4-dihydro-2H-1-benzopyran-3-yl]-6-methylthieno[2,3-b]pyridine-2-carboxamide] is lower in IC50: 0.05 to 0.2 µM for the first, 0.001 to 0.05 µM for the second.

`Cc1ccc2c(N)c(C(=O)N[C@H]3COc4c(ccc(N5CC6CCC(C5)N6)c4F)C3)sc2n1` [Example 103, 3-amino-N-[(3R)-7-{3,8-diazabicyclo[3.2.1]octan-3-yl}-8-fluoro-3,4-dihydro-2H-1-benzopyran-3-yl]-6-methylthieno[2,3-b]pyridine-2-carboxamide] and `Cc1ccc2c(N)c(C(=O)N[C@H]3COc4cc(N5CC6CNCC(C5)O6)c(F)cc4C3)sc2n1` [Example 106, 3-amino-N-[(3R)-6-fluoro-7-{9-oxa-3,7-diazabicyclo[3.3.1]nonan-3-yl}-3,4-dihydro-2H-1-benzopyran-3-yl]-6-methylthieno[2,3-b]pyridine-2-carboxamide] fall in the same range of IC50: 0.05 to 0.2 µM for the first, 0.05 to 0.2 µM for the second.

`Cc1ccc2c(N)c(C(=O)N[C@H]3COc4c(F)c(N5C[C@@H]6C[C@H]5CN6)cc(F)c4C3)sc2n1` [Example 110, 3-amino-N-[(3R)-7-[(1S,4S)-2,5-diazabicyclo[2.2.1]heptan-2-yl]-5,8-difluoro-3,4-dihydro-2H-1-benzopyran-3-yl]-6-methylthieno[2,3-b]pyridine-2-carboxamide] and `Cc1ccc2c(N)c(C(=O)N[C@H]3COc4c(F)c(N5C[C@H]6C[C@@H]5CN6)cc(F)c4C3)sc2n1` [Example 111, 3-amino-N-[(3R)-7-[(1R,4R)-2,5-diazabicyclo[2.2.1]heptan-2-yl]-5,8-difluoro-3,4-dihydro-2H-1-benzopyran-3-yl]-6-methylthieno[2,3-b]pyridine-2-carboxamide] fall in the same range of IC50: 0.05 to 0.2 µM for the first, 0.05 to 0.2 µM for the second.

`Cc1ccc2c(N)c(C(=O)N[C@H]3COc4cc(N5C[C@@H]6C[C@H]5CN6)c(F)c(F)c4C3)sc2n1` [Example 112, 3-amino-N-[(3R)-7-[(1S,4S)-2,5-diazabicyclo[2.2.1]heptan-2-yl]-5,6-difluoro-3,4-dihydro-2H-1-benzopyran-3-yl]-6-methylthieno[2,3-b]pyridine-2-carboxamide] and `Cc1ccc2c(N)c(C(=O)N[C@H]3COc4nc(N5CC6CNCC(C5)C6(F)F)ccc4C3)sc2n1` [Example 113, 3-amino-N-[(3R)-7-{9 9-difluoro-3,7-diazabicyclo[3.3.1]nonan-3-yl}-2H b,3H,4H-pyrano[2,3-b]pyridin-3-yl]-6-methylthieno[2,3-b]pyridine-2-carboxamide] fall in the same range of IC50: 0.2 to 2 µM for the first, 0.2 to 2 µM for the second.
